Read-outs that look alike come from different tables or passages of the source. Positions of bridges follow the written chain, without caps; N, C: chain ends. Residues, ends and D or L forms follow the SMILES beside them.
Molecular target: T1, BMPRII (Homo sapiens, UniProt Q13873)
T1 construct: purchased R&D
T1 sequence (Q13873 27-151 limits assumed): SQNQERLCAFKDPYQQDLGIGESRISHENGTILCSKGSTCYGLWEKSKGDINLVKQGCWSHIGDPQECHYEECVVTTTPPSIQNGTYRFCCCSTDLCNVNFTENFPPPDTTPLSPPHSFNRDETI
Assay: SPR binding of peptides to immobilized BMPRII
Conditions: for kon / koff: BMPRII immobilized on COOH5 chip (2000 RU), peptide injected 120 s at 5 μL/min, 5 min dissociation; for kon: read-out: Association Rate Constant ka; for koff: read-out: Dissociation Rate Constant kd
Experimental: SPR was performed using SensiQ discovery ((ICX Nomadics, Oklahoma City, OK, USA) SPR. For the affinity experiments, all the samples were dissolved in phosphate-buffered saline (PBS, pH 7.4) (UniRegion Bio-Tech, New Taipei City, Taiwan) containing 150 mM NaCl (St. Louis, MI, USA). The same buffer was also used as the running buffer. To immobilize the BMPRII, the active and reference flow cells of a COOH5 sensor chip (ICX Nomadics, Oklahoma City, OK, USA) carboxylic chip were activated with 1-ethyl-3-(3-(dimethylamino)-propyl) carbodiimide hydrochloride (EDC) and N-hydroxysuccinimide (NHS) (Cytiva, Marlborough, MA, USA) for 5 min. BMPRII protein diluted to 20 μg/mL with acetate buffer (pH4.5) (APOLO biochemical Inc., New York, NY, USA) was injected over the active cell for 3 min at 10 μL/min, resulting in an immobilization level of 2000 RU. Both the reference flow cell and active flow cell were blocked with ethanolamine (Bio Rad, Hercules, CA, USA), pH 8.5 for 6 min. The system was then switched to running buffer, and different concentrations of the peptide were injected for 120 s at 5 μL/min, with 5 min of dissociation. The binding data were analyzed using the BIA-evaluation software 3.0 (BIACORE, Uppasala, Sweden).
We first investigated the binding affinity of these five peptides for BMPRII using SPR. Each peptide was individually passed over a Sensiq […] chip pre-immobilized with BMPRII.

[1] = BMPRII immobilized on COOH5 chip, PBS pH 7.4 with 150 mM NaCl, P-02 from saturation binding curve, read-out: Equilibrium Rate Constant KD

| kon (PBS pH 7.4 with 150 mM NaCl) [M⁻¹ s⁻¹] | koff (PBS pH 7.4 with 150 mM NaCl) [s⁻¹] | Kd [1] [µM] | Kd (as printed in text b26 without unit, read-out: equilibrium rate constant (KD) against BMPRII) [µM] | Compound |
| --- | --- | --- | --- | --- |
| 0.27 | 0.0221 |  |  | CC[C@H](C)[C@H](NC(=O)[C@H](C)NC(=O)[C@H](CO)NC(=O)[C@H](CC(C)C)NC(=O)[C@H](CCC(=O)O)NC(=O)[C@@H](NC(=O)[C@@H]1CCCN1C(=O)[C@@H](NC(=O)[C@H](CO)NC(=O)[C@H](CO)NC(=O)[C@H](C)NC(=O)[C@H](CCCCN)NC(=O)[C@@H]1CCCN1C(=O)[C@@H](NC(=O)[C@@H](N)CCCCN)[C@@H](C)CC)C(C)C)[C@@H](C)O)C(=O)N[C@@H](CO)C(=O)N[C@H](C(=O)N[C@@H](CC(C)C)C(=O)N[C@@H](Cc1ccc(O)cc1)C(=O)N[C@@H](CC(C)C)C(N)=O)[C@@H](C)O [P-01] (H-KIPKASSVPTELSAISTLYL-NH2) |
| 352 | 0.0333 |  |  | CC[C@H](C)[C@H](NC(=O)[C@H](C)NC(=O)[C@H](CO)NC(=O)[C@@H]1CSSC[C@H](N)C(=O)N[C@@H](CCCCN)C(=O)N[C@@H]([C@@H](C)CC)C(=O)N2CCC[C@H]2C(=O)N[C@@H](CCCCN)C(=O)N[C@@H](C)C(=O)N[C@@H](CO)C(=O)N[C@@H](CO)C(=O)N[C@@H](C(C)C)C(=O)N2CCC[C@H]2C(=O)N[C@@H]([C@@H](C)O)C(=O)N[C@@H](CCC(=O)O)C(=O)N[C@@H](CC(C)C)C(=O)N1)C(=O)N[C@@H](CO)C(=O)N[C@H](C(=O)N[C@@H](CC(C)C)C(=O)N[C@@H](Cc1ccc(O)cc1)C(=O)N[C@@H](CC(C)C)C(N)=O)[C@@H](C)O [P-03] (H-CKIPKASSVPTELCSAISTLYL-NH2; disulfide 1-14) |
| 460 | 0.0106 | 23.1 |  | CC[C@H](C)[C@@H]1NC(=O)[C@H](C)NC(=O)[C@H](CO)NC(=O)[C@H](CC(C)C)NC(=O)[C@H](CCC(=O)O)NC(=O)[C@H]([C@@H](C)O)NC(=O)[C@@H]2CCCN2C(=O)[C@H](C(C)C)NC(=O)[C@@H](NC(=O)[C@H](CO)NC(=O)[C@H](CO)NC(=O)[C@H](C)NC(=O)[C@H](CCCCN)NC(=O)[C@@H]2CCCN2C(=O)[C@@H](NC(=O)[C@@H](N)CCCCN)[C@@H](C)CC)CSSC[C@@H](C(N)=O)NC(=O)[C@H](CC(C)C)NC(=O)[C@H](Cc2ccc(O)cc2)NC(=O)[C@H](CC(C)C)NC(=O)[C@H]([C@@H](C)O)NC(=O)[C@H](CO)NC1=O [P-04] (H-KIPKASSCVPTELSAISTLYLC-NH2; disulfide 8-22) |
| 37.8 | 0.000487 | 12.9 |  | CC[C@H](C)[C@@H]1NC(=O)[C@H](C)NC(=O)[C@H](CO)NC(=O)[C@H](CC(C)C)NC(=O)[C@H](CCC(=O)O)NC(=O)[C@H]([C@@H](C)O)NC(=O)[C@@H]2CCCN2C(=O)[C@H](C(C)C)NC(=O)[C@H](CO)NC(=O)[C@H](CO)NC(=O)[C@H](C)NC(=O)[C@H](CCCCN)NC(=O)[C@@H]2CCCN2C(=O)[C@H]([C@@H](C)CC)NC(=O)[C@H](CCCCN)NC(=O)[C@@H](N)CSSC[C@@H](C(N)=O)NC(=O)[C@H](CC(C)C)NC(=O)[C@H](Cc2ccc(O)cc2)NC(=O)[C@H](CC(C)C)NC(=O)[C@H]([C@@H](C)O)NC(=O)[C@H](CO)NC1=O [P-05] (H-CKIPKASSVPTELSAISTLYLC-NH2; disulfide 1-22) |
|  |  | 80.6 | 80.6 | P-02: Cyclic disulfide BMP-2 peptide, N-terminal and C-terminal regions outside the cyclic structure (KIPKCSSVPTELSCISTLYL; not fully specified; Intramolecular disulfide Cys5-Cys14; probably C-terminal amide (Rink amide resin); Parent is BMP-2 mature 73-92 (offset +282) in the P) |

Reference: publication PMC8347162, “A Cyclic BMP-2 Peptide Upregulates BMP-2 Protein-Induced Cell Signaling in Myogenic Cells” (Polymers, 2021)
